# According to patent US10434167B2 (priority 2014, dated 2019):
# Tested on: Human red blood cells
# Test: Hemolytic assay (hemolysis of red blood cells by QS-21/saponin with or without liposomes)
# Assay type: cell-based
# Conditions: 22° C.
# Excerpt: Hemolysis of red blood cells was used as a measure both of the relative amount of free QS-21, and of the toxicity of QS-21 under the indicated experimental conditions. Human red blood cells were purchased from the Research Blood Components LLC (Boston, Mass., USA) under a Walter Reed Army institute of Research protocol reviewed by the independent Institutional Review Board, Division of Human Subjects. Erythrocytes were washed with PBS and were quantified by a Beckman Coulter counter model ACT10 (Indianapolis Ind., USA). In each assay of this study, hemolytic activity of QS-21 incubated with or without liposomes was determined in 220 μl volume and each step of the assay was performed at room temperature (22° C.). One hundred microliters of QS-21 dilution was incubated with 100 μl of liposomes, or PBS only, on a Daigger Rocker (Vernon Hills, Ill., USA) for 15 minutes. After mixing the liposomes, 2×10^7 erythrocytes in 20 μl of PBS were added to the mixture and incubated on a Daigger Rocker for an additional 30 minutes. Plates were centrifuged at 800×g for 6 min. Supernatant was transferred to a polystyrene 96-well plate, and absorbance was read at 541 nm. Hemolysis by QS-21 binding to liposomal Chol was expressed as % of maximum hemolysis by free QS-21.
# The hemolytic activities of liposome compositions with QS-21 were characterized first by varying QS-21 concentration. […] Red blood cells were added to the mixture of liposome-QS-21, and incubated for 30 minutes. Free QS-21 served as positive control. Cells were centrifuged and the optical density of supernatant was measured at 541 nm to reflect the levels of hemolysis.
substance,measurement,setting,value
QS-21,amount of QS-21 causing maximum hemolysis,QS-21 pre-incubated with DMPC/DMPG liposomes (5 μmol phospholipids) containing 33.7 mol % Chol,approximately 4 μg
same,amount of QS-21 causing maximum hemolysis,QS-21 pre-incubated with DMPC/DMPG liposomes (5 μmol phospholipids) containing 43 mol % Chol,approximately 4 μg
same,amount of QS-21 up to which the hemolytic effect was completely blocked,QS-21 pre-incubated with DMPC/DMPG liposomes (5 μmol phospholipids) having 55 mol % Chol,≥ 200 µg
same,amount of QS-21 causing maximum hemolysis,"free QS-21, no liposomes",approximately 2 μg
